The subject of data set [1] is HIV-1NL4-3. Description: HIV-1 infectivity assay in TZM-bl reporter cell line (LTR-luciferase, 48 h). It counts as cell-based. The settings on record: Human immunodeficiency virus 1, TZM-bl. In short, it runs like this: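 TZM-bl cells infected with HIV-1NL4-3 ± compound (1 μM), luciferase measured at 48 h. Normalization: DMSO/wild-type = 0% inhibition, DMSO/Nef-defective = 100% of Nef-dependent effect.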

In data set [2] the test system is TZM-bl cell line. It counts as cell-based. Particulars: human, 1 μM. In short, it runs like this: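 Read-out is luciferase from an integrated HIV-1 LTR reporter in TZM-bl cells, 48 h after HIV-1NL4-3 infection in the presence of 1 μM compound. Scale set by DMSO-treated wild-type-infected cells (0%) and Nef-defective virus (100% Nef-dependent effect). Cell Titer Blue measures cytotoxicity without virus.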

The target in data set [3] is HIV-1 NefNL4-3 (Human immunodeficiency virus type 1 group M subtype B, UniProt P03406, A33V/T15A/T51N/V11I). Description: Surface plasmon resonance binding to recombinant full-length Nef (NL4-3). The settings on record: for RU30/RUNef (extent of binding): response units at 30 μM relative to Nef immobilized on the SPR chip.
Setting [4] is: 1.0 μM, TZM-bl reporter cell line, Table 4, read-out: % Infectivity Inhibition.
Setting [5] is: KD, M, Table 4, SPR fit 2-step induced fit, KD = koff/kon × koff2/(koff2 + kon2).
Setting [6] is: Table 4, 2-step induced fit, T = 1/koff2.
Where [7] appears, read: 48 h, Table 1, TZM-bl cells, 1 μM, 48 h, 100% = Nef-defective HIV-1, read-out: HIV-1 Infectivity % Inhibition Norm. to Δ-Nef @ 1 μM.
The mark [8] stands for this setting: Nef NL4-3 Binding, SPR 2-state fitting KD, Table 1, 2-step induced-fit model.
Where [9] appears, read: read-out: Nef NL4-3 Binding, SPR 1:1 or 2-site fitting KD2, Table 1, 2-site fit, second component.
Setting [10] is: KD, M, Table 4, SPR fit 1:1 Langmuir, KD = koff/kon.
Setting [11] is: Table 4, 1:1 Langmuir fit, T = 1/koff.

Like-named read-outs stand apart in the source and are kept apart here.

For the compound `Oc1c(CC2CCOCC2)c(-c2ccc(F)cc2F)nn1-c1nc2ccccc2[nH]1` [Compound I-187, 1-(1H-1,3-benzodiazol-2-yl)-3-(2,4-difluorophenyl)-4-[(oxan-4-yl)methyl]-1H-pyrazol-5-ol], in data set [1] (setting [4]), the inhibition at 1 µM is 20.2%. For the same compound, in data set [2], the “% Cell Viability” value was determined as 100%. For the same compound, in data set [3] (setting [5]), the Kd came out at 0.0307 nM. Also, the “T, minutes (residence time)” value in data set [3] (setting [6]) is 1.02E + 06 minutes. In addition, in data set [3], the “RU30/RUNef (extent of binding)” value was 8.62E- 03.

Turning to `O=C(OCc1ccccc1)N1CCC(c2c(-c3ccc(C(F)(F)F)cc3)nn(-c3nc4ccccc4[nH]3)c2O)CC1` [Compound I-164, benzyl 4-[1-(1H-1,3-benzodiazol-2-yl)-5-hydroxy-3-[4-(trifluoromethyl)phenyl]-1H-pyrazol-4-yl]piperidine-1-carboxylate], in data set [1] (setting [7]), the inhibition at 1 µM came to 64.9%. In addition, the “Percent Viability @ 1 μM (TZM-bl cells)” value in data set [2] is reported as 93.6%. For the same compound, the “Nef NL4-3 Binding, SPR 1:1 or 2-site fitting KD1” value in data set [3] (Table 1, 1:1 Langmuir fit where the KD2 cell says '1 to 1 fitting', else 2-site fit) was “No Interaction”.

With `Oc1c(CCN2CCOCC2)c(-c2ccc(C(F)(F)F)cc2)nn1-c1nc2ccccc2[nH]1` [Compound I-131, 1-(1H-1,3-benzodiazol-2-yl)-4-[2-(morpholin-4-yl)ethyl]-3-[4-(trifluoromethyl)phenyl]-1H-pyrazol-5-ol], the inhibition at 1 µM in data set [1] (setting [4]) and in data set [1] (setting [7]) was 14.2% throughout. Also, the “% Cell Viability” value in data set [2] worked out at 96.4%. The “Percent Viability @ 1 μM (TZM-bl cells)” value in data set [2] is recorded as 96.4%. Also, the Kd in data set [3] amounted to 1360 nM; in data set [3] (setting [5]), 4930 nM; in data set [3] (setting [8]), 4930 nM; in data set [3] (setting [9]), 17800 nM. In addition, in data set [3] (setting [6]), the “T, minutes (residence time)” value is 5.16E + 00 minutes. In addition, in data set [3], the “RU30/RUNef (extent of binding)” value is 1.06E- 02.

With `O=C(c1c(O)cc(O)cc1O)N1CCCC1c1nn(-c2nc3ccccc3[nH]2)c(O)c1CCc1ccc(F)cc1` (stereo not drawn) [Compound I-762, 2-{2-[1-(1H-1,3-benzodiazol-2-yl)-4-[2-(4-fluorophenyl)ethyl]-5-hydroxy-1H-pyrazol-3-yl]pyrrolidine-1-carbonyl}benzene-1,3,5-triol], the inhibition at 1 µM in data set [1] (setting [4]) and in data set [1] (setting [7]) was 25.7% each time. The “% Cell Viability” value in data set [2] came out at 98.6%. Also, the “Percent Viability @ 1 μM (TZM-bl cells)” value in data set [2] was determined as 98.9%. Also, the Kd was 277 nM in data set [3], 3.98 nM in data set [3] (setting [5]), 3.98 nM in data set [3] (setting [8]) and 7460 nM in data set [3] (setting [9]).

Turning to `O=C(C1CC1)N1CCC(CCc2c(C3CC3)nn(-c3nc4cc(Cl)ccc4[nH]3)c2O)CC1` [Compound I-711, 1-(5-chloro-1H-1,3-benzodiazol-2-yl)-4-[2-(1-cyclopropanecarbonylpiperidin-4-yl)ethyl]-3-cyclopropyl-1H-pyrazol-5-ol], the inhibition at 1 µM in data set [1] (setting [4]) is 0%; in data set [1] (setting [7]) it was -0.4%. Also, the “% Cell Viability” value in data set [2] is listed as 97.2%. Besides, in data set [2], the “Percent Viability @ 1 μM (TZM-bl cells)” value was determined as 97.2%. Besides, the Kd in data set [3] (setting [5]) turned out to be 3290 nM; in data set [3] (setting [8]), 3290 nM; in data set [3] (setting [9]), 8640 nM. In addition, the “T, minutes (residence time)” value in data set [3] (setting [6]) was 5.97E + 00 minutes. For the same compound, in data set [3], the “RU30/RUNef (extent of binding)” value is given as 1.96E- 02.

Turning to `CS(=O)(=O)N1CCC(Cc2c(-c3ccc(C(F)(F)F)cc3)nn(-c3nc4ccccc4[nH]3)c2O)CC1` [Compound I-718, 1-(1H-1,3-benzodiazol-2-y1)-4-[(1-methanesulfonylpiperidin-4-yl)methyl]-3-[4-(trifluoromethyl)phenyl]-1H-pyrazol-5-ol], the inhibition at 1 µM in data set [1] (setting [4]) came out at 56.3%. Further, in data set [1] (setting [7]), the inhibition at 1 µM amounted to 56.3%. In data set [2], the “% Cell Viability” value was 89.1% and the “Percent Viability @ 1 μM (TZM-bl cells)” value came out at 89.1%. Further, in data set [3], the Kd is 597 nM and the “RU30/RUNef (extent of binding)” value stood at 1.22E- 03. Further, the Kd in data set [3] (setting [10]) was 597 nM. In data set [3] (setting [11]), the “T, minutes (residence time)” value is on record as 3.62E + 00 minutes.

Regarding `Oc1c(CCC2CCOCC2)c(-c2ccc(C(F)(F)F)cc2)nn1-c1nc2ccccc2[nH]1` [Compound I-139, 1-(1H-1,3-benzodiazol-2-yl)-4-[2-(oxan-4-yl)ethyl]-3-[4-(trifluoromethyl)phenyl]-1H-pyrazol-5-ol], the inhibition at 1 µM in data set [1] (setting [4]) and in data set [1] (setting [7]) was 44.1% in each case. Moreover, the “% Cell Viability” value in data set [2] was 80.8%. Moreover, in data set [2], the “Percent Viability @ 1 μM (TZM-bl cells)” value is recorded as 80.8%. Further, the Kd in data set [3] stood at 556 nM; in data set [3] (setting [5]), 2070 nM; in data set [3] (setting [8]) it was 2070 nM. For the same compound, in data set [3] (setting [6]), the “T, minutes (residence time)” value stood at 1.77E + 01 minutes. The “RU30/RUNef (extent of binding)” value in data set [3] is on record as 3.41E- 03.

Turning to `CS(=O)(=O)c1ccc(-c2nn(-c3nc4cc(F)ccc4[nH]3)c(O)c2CCC2CCOCC2)cc1` [Compound I-169, 1-(5-fluoro-1H-1,3-benzodiazol-2-yl)-3-(4-methanesulfonylphenyl)-4-[2-(oxan-4-yl)ethyl]-1H-pyrazol-5-ol], the inhibition at 1 µM in data set [1] (setting [7]) was -4.8%. Further, in data set [2], the “Percent Viability @ 1 μM (TZM-bl cells)” value is 98.7%. Further, the values for the Kd in data set [3], in data set [3] (setting [8]) and in data set [3] (setting [9]) were 465 nM, 7400 nM and 1810 nM, respectively.

On to `O=C(Cc1ccncc1)N1CCCC1c1nn(-c2nc3ccccc3[nH]2)c(O)c1CCc1ccc(F)cc1` (stereo not drawn) [Compound I-760, 1-{2-[1-(1H-1,3-benzodiazol-2-yl)-4-[2-(4-fluorophenyl)ethyl]-5-hydroxy-1H-pyrazol-3-yl]pyrrolidin-1-yl}-2-(pyridin-4-yl)ethan-1-one], for which the inhibition at 1 µM in data set [1] (setting [4]) was 46.5%. Moreover, in data set [1] (setting [7]), the inhibition at 1 µM stood at 46.5%. Also, in data set [2], the “% Cell Viability” value was 96.8% and the “Percent Viability @ 1 μM (TZM-bl cells)” value was 96.8%. Moreover, in data set [3], the Kd was found to be 780 nM and the “RU30/RUNef (extent of binding)” value is given as 1.38E- 03. Further, the Kd in data set [3] (setting [10]) came out at 780 nM. Further, in data set [3] (setting [11]), the “T, minutes (residence time)” value is listed as 7.31E + 00 minutes.

Turning to `CS(=O)(=O)c1ccc(-c2nn(-c3nc4ccccc4[nH]3)c(O)c2CCC2CCN(CC(F)(F)F)CC2)cc1` [Compound I-154, 1-(1H-1,3-benzodiazol-2-yl)-3-(4-methanesulfonylphenyl)-4-{2-[1-(2,2,2-trifluoroethyl)piperidin-4-yl]ethyl}-1H-pyrazol-5-ol], in data set [1] (setting [4]), the inhibition at 1 µM was 45.4%. The inhibition at 1 µM in data set [1] (setting [7]) came out at 45.4%. For the same compound, in data set [2], the “% Cell Viability” value turned out to be 69.3% and the “Percent Viability @ 1 μM (TZM-bl cells)” value is given as 69.3%. In addition, in data set [3], the Kd was 28800 nM and the “RU30/RUNef (extent of binding)” value is reported as 4.50E- 03. Moreover, in data set [3] (setting [10]), the Kd was determined as 28800 nM. In addition, the “T, minutes (residence time)” value in data set [3] (setting [11]) is recorded as 6.80E + 00 minutes.

Consider `CC(C)(C)c1nn(-c2nc3ccccc3[nH]2)c(O)c1CC1CCOCC1` [Compound I-180, 1-(1H-1,3-benzodiazol-2-yl)-3-tert-butyl-4-[(oxan-4-yl)methyl]-1H-pyrazol-5-ol], for which the inhibition at 1 µM in data set [1] (setting [4]) turned out to be 74.8%. In data set [2], the “% Cell Viability” value is 100%. Besides, the Kd in data set [3] (setting [10]) amounted to 7190 nM. Moreover, the “T, minutes (residence time)” value in data set [3] (setting [11]) was 2.48E + 00 minutes. The “RU30/RUNef (extent of binding)” value in data set [3] stood at 2.62E- 03.

The values above are taken from patent US20220380341A1, “INHIBITORS OF HIV-1 NEF FOR THE TREATMENT OF HIV DISEASE” (priority 2018, published 2022).
